Reference: paper PMC4385927 (Cell Death & Disease, 2015)
Like-named read-outs stand apart in the source and are kept apart here.

Key:
[1] = test system: ATF4; set-up: species or system mice; settings: mouse, in vivo, ip, 0.25 mg/kg
[2] = test system: Rocky Mountain Laboratory (RML) prions; format: in vivo, mice
[3] = test system: CHO cells expressing a luciferase reporter construct under control of the CHOP promoter; assay: CHOP::luciferase assay; format: cell-based; settings: 5 μg/ml tunicamycin 6 h; ISRIB 1 μM, GSK2606414 20 μM; n=9
Procedure: AR42j cells were cultured in DMEM supplemented with 10% Fetal calf serum (FetalClone II, Thermo Scientific, Loughborough, UK), 2 mM l-glutamine, 1 × Penicillin/Streptomycin and 1 × non-essential amino-acid solution and were maintained at 37 °C with 5% CO2. CHO-KI CHOP::luciferase cells were cultured in DMEM/F12(Ham) (Gibco, Paisley, UK) supplemented with 10% Fetal calf serum, 2 mM L-glutamine and 1 × Penicillin/Streptomycin, and were maintained at 37 °C with 5% CO2.
CHO::KI cells stably transfected with a CHOP::luciferase reporter[27] were plated at a density of 1 × 10^5 per well in a six-well plate and left to grow overnight. Cells were treated for 6 h with 5 μg/ml tunicamycin or vehicle only (100% DMSO) and then extracted using the Steady-Glo luciferase assay system (Promega) before being quantified using the Glomax 96 microplate luminometer (Promega). ISRIB and GSK2606414 were incubated with 5 μg/ml tunicamycin for 6 h at 1 or 20 μM, respectively, before assaying as above.

[4] = test system: global protein synthesis rates; set-up: species or system mice; settings: mouse, in vivo, ip, 0.25 mg/kg
[5] = test system: AR42j rat pancreatic acinar cells; format: cell-based
[6] = Plasma and brain concentration of trans-ISRIB by LC-MS/MS after single intraperitoneal injection; format: in vivo; settings: wild-type mice; for Brain mean ±S.D. / Plasma mean ±S.D.: n=3
Procedure: We synthesized ISRIB as described,[22] and confirmed penetration of the blood–brain barrier and measured mean brain:plasma ratios at various doses in wild-type mice. Intra-peritoneal administration of 0.25 mg/kg of trans-ISRIB (henceforth termed simply ISRIB), as used by Sidrauski et al.[22] to enhance memory in mice, gave a favorable pharmacokinetic profile (Table 1), so this dose was used for treatment.
Blood and brain tissue were collected 8 or 24 h after dosing from mice treated with one doses of 0.25, 2.5 or 5 mg/kg trans-ISRIB, or vehicle. Blood plasma (up 0.2 ml, exact volume measured) was diluted with water to 0.2 ml and extracted with 0.4 ml of chloroform/methanol 2 : 1. After vortex mixing (10 min) and centrifugation (10 000 g, 10 min), the lower layer was dried with vacuum centrifugation and reconstituted in 50 μl of methanol. Brain tissue (one complete half, about 0.25 g weighed exactly) was homogenized in 0.5 ml of chloroform/methanol 2 : 1 and further processed exactly as the plasma samples. ISRIB quantitative analysis (using external standards) was performed by LC-MS/MS using a 4000 QTRAP mass spectrometer (Applied Biosystems, Foster City, CA, USA) equipped with a turbo ion source and LC series 10 AD VP (Shimadzu). The mobile phase was a water/acetonitrile gradient modified with 0.1% formic acid using a Agilent Poroshell 120 SB-C18 2.1 × 50 mm^2 (2.7 μm), which was maintained at 40 °C. LC-MS/MS multiple reaction monitoring used a precursor ion of mass/charge ratio (m/z) 452 and a product ion of m/z 265 in positive electrospray ionization mode for trans-ISRIB. Data analysis was performed with Analyst 1.4.1 in the quantitative mode.

[7] = Solubility (statement); format: physicochemical
[8] = test system: eIF2α-P; set-up: species or system mice; settings: mouse, in vivo, ip, 0.25 mg/kg
[9] = mouse, in vivo
[10] = test system: total PrP and PrP^Sc; set-up: species or system mice; settings: mouse, in vivo
[11] = cited from earlier work
[12] = test system: global protein synthesis rates; settings: mouse; cited from earlier work
[13] = prion-infected mice, ISRIB 0.25 mg/kg i.p. daily from 7 w.p.i., vehicle 9/9
[14] = single i.p. dose 0.25 mg/kg, 8 h
[15] = single i.p. dose 0.25 mg/kg, 24 h
[16] = single i.p. dose 2.5 mg/kg, 8 h
[17] = single i.p. dose 2.5 mg/kg, 24 h

O=C(COc1ccc(Cl)cc1)N[C@H]1CC[C@H](NC(=O)COc2ccc(Cl)cc2)CC1 [ISRIB]
levels of ATF4 (hippocampus) [1]: reduced levels of ATF4 markedly
animals that developed confirmatory signs of prion disease by 12 w.p.i. ([2]; clinical observation, vehicle 9/9): 0/12
survival in prion-infected mice ([2]; n=12, vehicle 84±3 days (n=9), killed because of loss of 20% of body weight): 96±4 days post infection
Confirmatory signs: Dragging of limbs (front/hind) (mice affected/total) ([2]; prion-infected mice, ISRIB 0.25 mg/kg i.p. daily from 7 w.p.i., vehicle 2/9): 0/12
Confirmatory signs: Sustained hunched posture (mice affected/total) ([2]; prion-infected mice, ISRIB 0.25 mg/kg i.p. daily from 7 w.p.i., vehicle 3/9): 0/12
Early indicator signs: Unsustained hunched posture (mice affected/total) ([2]; prion-infected mice, ISRIB 0.25 mg/kg i.p. daily from 7 w.p.i., vehicle 4/9): 0/12
Confirmatory signs: Impairment of righting reflex (mice affected/total) ([2]; prion-infected mice, ISRIB 0.25 mg/kg i.p. daily from 7 w.p.i., vehicle 5/9): 0/12
Early indicator signs: Hind limb clasping (mice affected/total) ([2]; prion-infected mice, ISRIB 0.25 mg/kg i.p. daily from 7 w.p.i., vehicle 8/9): 7/12
Early indicator signs: Mild loss of coordination (mice affected/total) [2, 13]: 7/12
Early indicator signs: Rigid tail (mice affected/total) [2, 13]: 7/12
Scrapie incubation: Number of animals succumbing to prion disease [2, 13]: 0/12
neuronal loss in the hippocampus (neuropathological examination, H&E) ([2]; prion-infected mice, ISRIB vs vehicle): prevented neuronal loss
tunicamycin-induced CHOP induction (relative luminescence) [3]: only partially reduced
global protein synthesis rates, % of levels seen in uninfected controls [4]: ~ 70%
protein synthesis (translation) rates restored in vitro, % of control levels [5]: ~ 50%
Mean ratio brain: plasma [6, 14]: 0.54
Brain mean ±S.D. [6, 14]: 186.9 ± 46.8 ng/g
Plasma mean ±S.D. [6, 14]: 345.3 ± 44.7 ng/mL
Mean ratio brain: plasma [6, 15]: 1.62
Brain mean ±S.D. [6, 15]: 16.0 ± 1.6 ng/g
Plasma mean ±S.D. [6, 15]: 9.9 ± 1.0 ng/mL
Mean ratio brain: plasma [6, 16]: 0.35
Brain mean ±S.D. [6, 16]: 254.6 ± 70.3 ng/g
Plasma mean ±S.D. [6, 16]: 721.6 ± 60.1 ng/mL
Mean ratio brain: plasma [6, 17]: 0.9
Brain mean ±S.D. [6, 17]: 39.7 ± 12.6 ng/g
Plasma mean ±S.D. [6, 17]: 44.1 ± 11.6 ng/mL
Mean ratio brain: plasma ([6]; single i.p. dose 5 mg/kg, 8 h): 0.43
Brain mean ±S.D. ([6]; single i.p. dose 5 mg/kg, 8 h): 160.3 ± 17.6 ng/g
Plasma mean ±S.D. ([6]; single i.p. dose 5 mg/kg, 8 h): 369.7 ± 114.4 ng/mL
Mean ratio brain: plasma ([6]; single i.p. dose 5 mg/kg, 24 h): 0.91
Brain mean ±S.D. ([6]; single i.p. dose 5 mg/kg, 24 h): 64.6 ± 9.2 ng/g
Plasma mean ±S.D. ([6]; single i.p. dose 5 mg/kg, 24 h): 70.9 ± 30.6 ng/mL
solubility [7]: high insolubility
eIF2α-P levels (hippocampus) [8]: unchanged
blood glucose levels [9]: unaffected
loss of body weight at which animals had to be killed [9]: 20%
pancreas histology (H&E sections) [9]: histologically normal
pancreatic weights [9]: normal
levels of total PrP and PrP^Sc [10]: does not affect

Cn1cc(-c2ccc3c(c2)CCN3C(=O)Cc2cccc(C(F)(F)F)c2)c2c(N)ncnc21 [GSK2606414, 7-methyl-5-(1-{[3-(trifluoromethyl)phenyl]acetyl}-2,3-dihydro-1H-indol-5-yl)-7H-p yrrolo[2,3-d]pyrimidin-4-amine]
tunicamycin-induced CHOP induction (relative luminescence) [3]: completely inhibited
protein synthesis (translation) rates restored in vitro, % of control levels ([5]; thapsigargin-treated AR42j cells, Figures 6a and b): 90%
reduction in pancreatic weight ([9]; Tg37+/-, po, 50 mg/kg): ~ 50%
blood glucose levels [9]: mildly but significantly elevated
pancreas histology (H&E sections) [9]: extensive destruction of exocrine acinar pancreatic tissue
toxicity of GSK2606414 treatment in prion-diseased mice [11]: weight loss and mild hyperglycemia
recovery of protein synthesis rates in vivo [12]: ~ 100%
